Laboratory results reported in patent US20050033056A1, “Hydroxylated indole derivatives and uses thereof” (priority 2001, published 2005).

Legend:
Assay type in all cases: in vitro ADME
Conditions in all cases: 10 or 50 μM
CYP1A2 = target: T1, CYP1A2 (Homo sapiens, UniProt P05177); assay: CYP inhibition in HLM: R-warfarin 6-hydroxylation
T1 construct: tissue Gentest Corp. (Woburn, Mass.); host or cells: pooled human liver microsomes
T1 sequence (P05177 1-516): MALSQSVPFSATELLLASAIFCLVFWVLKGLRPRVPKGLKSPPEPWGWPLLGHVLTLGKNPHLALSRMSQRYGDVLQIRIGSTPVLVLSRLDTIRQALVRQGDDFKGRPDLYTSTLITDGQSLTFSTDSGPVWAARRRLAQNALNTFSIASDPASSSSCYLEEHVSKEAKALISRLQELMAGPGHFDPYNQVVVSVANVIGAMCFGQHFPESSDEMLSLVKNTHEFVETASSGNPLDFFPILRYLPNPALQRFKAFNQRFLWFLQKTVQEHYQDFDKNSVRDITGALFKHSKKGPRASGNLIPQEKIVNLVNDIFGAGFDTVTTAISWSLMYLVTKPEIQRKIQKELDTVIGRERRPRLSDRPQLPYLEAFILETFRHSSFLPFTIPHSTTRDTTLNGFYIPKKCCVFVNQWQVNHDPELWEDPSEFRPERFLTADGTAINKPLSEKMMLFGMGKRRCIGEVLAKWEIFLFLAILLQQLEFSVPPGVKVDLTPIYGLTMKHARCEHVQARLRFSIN
Experimental: (§1) The incubations were carried out in test tubes (12.0×75 mm). The incubation mixtures (250 μL) contained 0.5 mg of HLM protein, 50 (CYP1A2 and CYP2E1) or 25 (CYP2C9, CYP2C19, CYP2D6 and CYP3A4) pmol of recombinant human CYPs, Compound 1 (10 or 50 μM), probe substrate (R—, S-warfarin, chlorzoxazone, S-mephenyloin, or bufuralol) at different concentrations, and 0.5 mg of NADPH in 50 mM Tris buffer containing 15 mM MgCl2 (pH 7.4). Compound 1 was added to the reaction mixture 5 minutes prior to the addition of the probe substrate. […]
(§2) The quantification was based on the calibration curves, and the quality control (QC) samples were applied to ensure the quality of the experiments. […]
(§3) 1. CYP1A2/2C9/3A4-mediated warfarin 6-, 7-, 8-, and 10-hydroxylation (Zhang et al., Drug Metab. Dispos. 23:1339-1346, 1995; Rettie et al., Chem. Res. Toxicol. 5:54-59, 1992; Brian et al., Biochemistry 29:11280-11292, 1990): Hewlett Packard 1100 HPLC system (Waldbronn, Germany) comprised a binary pump, an autosampler, a column compartment unit, a photodiode array detector (PDA), and a fluorescence detector. […] The warfarin metabolites, 6-, 8-, and 10-hydroxywarfarin, were monitored by UV at 313 nm, and 7-hydroxywarfarin by fluorescence at Ex320 nm/Em380 nm. […]

CYP2C9 = target: T2, CYP2C9 (Homo sapiens, UniProt P11712); assay: CYP inhibition in HLM: S-warfarin 7-hydroxylation
T2 construct: tissue Gentest Corp. (Woburn, Mass.); host or cells: pooled human liver microsomes
Experimental: as §1, §2, §3

CYP3A4 = CYP3A4 (Homo sapiens, UniProt P08684); assay: CYP inhibition in HLM: R-warfarin 10-hydroxylation; set-up: tissue Gentest Corp. (Woburn, Mass.); host or cells: pooled human liver microsomes
Experimental: as §1, §2, §3

CYP3A4, sequence (P08684 whole entry): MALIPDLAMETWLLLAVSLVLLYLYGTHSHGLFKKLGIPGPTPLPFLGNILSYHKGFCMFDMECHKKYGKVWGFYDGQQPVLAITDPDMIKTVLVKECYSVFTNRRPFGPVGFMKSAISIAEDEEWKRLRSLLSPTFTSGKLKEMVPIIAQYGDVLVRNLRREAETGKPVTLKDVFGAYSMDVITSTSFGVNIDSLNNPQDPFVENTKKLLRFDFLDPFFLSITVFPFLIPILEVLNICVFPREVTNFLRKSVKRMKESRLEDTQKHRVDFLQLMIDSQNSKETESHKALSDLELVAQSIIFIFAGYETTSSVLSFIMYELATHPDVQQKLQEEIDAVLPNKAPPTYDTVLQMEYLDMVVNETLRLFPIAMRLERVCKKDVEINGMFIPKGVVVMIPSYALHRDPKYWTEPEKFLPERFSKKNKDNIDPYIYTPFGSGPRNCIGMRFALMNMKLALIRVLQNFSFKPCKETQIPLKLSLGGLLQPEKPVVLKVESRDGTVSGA
T2 sequence (P11712 whole entry): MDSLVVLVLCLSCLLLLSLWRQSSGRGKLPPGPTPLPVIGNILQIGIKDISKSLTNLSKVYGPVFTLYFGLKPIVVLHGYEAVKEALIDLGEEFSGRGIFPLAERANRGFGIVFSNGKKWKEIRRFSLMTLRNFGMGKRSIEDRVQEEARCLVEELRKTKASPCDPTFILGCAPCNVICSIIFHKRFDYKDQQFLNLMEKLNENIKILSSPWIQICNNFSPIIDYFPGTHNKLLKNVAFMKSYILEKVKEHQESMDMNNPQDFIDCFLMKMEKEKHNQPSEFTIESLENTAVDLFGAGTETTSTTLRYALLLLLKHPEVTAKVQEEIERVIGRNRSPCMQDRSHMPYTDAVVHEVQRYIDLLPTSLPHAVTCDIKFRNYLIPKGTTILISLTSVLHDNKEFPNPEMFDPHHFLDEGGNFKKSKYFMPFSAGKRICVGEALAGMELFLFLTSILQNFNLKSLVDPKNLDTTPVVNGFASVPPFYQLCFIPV

CNC(=O)Cc1ccc2ccn(C3CCN(CCc4ccccc4F)CC3)c2c1 [Compound 1, N-methyl-[1-[1-(2-fluorophenethyl)piperidine-4-yl]-1H-indol-6-yl] acetamide]
no inhibitory effect: inhibitory effect on CYP1A2 activity (in words) (CYP1A2) | inhibitory effect on CYP2C9 activity (in words) (CYP2C9) | inhibitory effect on CYP3A4 activity (in words) (CYP3A4)
